Structures are written as SMILES.

The assay concerns the target T1, human recombinant OX2 (hOX2) receptor expressed in CHO cells (Homo sapiens, UniProt O43614).
T1 construct: host or cells: CHO cells (hOX2-CHO)
T1 sequence (O43614 1-444): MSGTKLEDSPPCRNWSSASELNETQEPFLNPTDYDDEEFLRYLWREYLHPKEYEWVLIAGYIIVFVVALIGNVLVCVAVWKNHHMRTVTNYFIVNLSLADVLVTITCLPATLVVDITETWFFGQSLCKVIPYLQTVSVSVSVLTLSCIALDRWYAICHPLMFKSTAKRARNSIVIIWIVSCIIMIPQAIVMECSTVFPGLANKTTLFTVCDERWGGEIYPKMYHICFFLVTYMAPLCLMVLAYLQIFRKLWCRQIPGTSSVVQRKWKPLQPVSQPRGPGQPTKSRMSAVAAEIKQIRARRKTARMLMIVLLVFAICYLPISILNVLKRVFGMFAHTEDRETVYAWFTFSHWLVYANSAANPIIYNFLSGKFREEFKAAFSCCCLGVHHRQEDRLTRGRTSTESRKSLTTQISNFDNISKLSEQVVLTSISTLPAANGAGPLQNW
The assay can be described thus: IP-1 accumulation assay (IP-One HTRF) in hOX2-CHO cells. Particulars: 60 min at 37° C., 11 points CRC, response as % of maximal OX-A response. It is filed as cell-based. The gist of the method:
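CHO cells expressing hOX2, 20,000 cells/well in HBSS with 20 mM HEPES pH 7.4, 50 mM LiCl, 0.1% BSA; 11-point compound series, 0.5% DMSO final, 60 min at 37 °C. IP-1 by HTRF (665/615 ratio) after 60 min at room temperature, as % of maximal OX-A response; EC50 by four-parameter logistic fit, mean of ≥2 experiments in duplicate.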
For `Cc1cc(C)c(=O)n(C(CNS(=O)(=O)N(C)C)CO[C@H]2CC[C@@H](c3cccc(F)c3)CC2)c1` (stereo partly drawn) [Example 2aq, 1-{1-[(dimethylsulfamoyl)amino]-3-{[(CIS)-4-(3-fluorophenyl)cyclohexyl]oxy}propan-2-yl}-3,5-dimethyl-1,2-dihydropyridin-2-one], the EC50 was under 100 nM.

For the molecule `Cc1cc(C)c(=O)n(C(CNS(=O)(=O)CF)CO[C@H]2CC[C@@H](c3cccc(F)c3)CC2)c1` (stereo partly drawn) [Example 2at, N-[2-(3,5-dimethyl-2-oxo-1,2-dihydropyridin-1-yl)-3-{[(CIS)-4-(3-fluorophenyl)cyclohexyl]oxy}propyl]-1-fluoromethanesulfonamide], the EC50 is under 100 nM.

With `COCCS(=O)(=O)NCC(CO[C@H]1CC[C@@H](c2cccc(F)c2)CC1)n1cc(C)cc(C)c1=O` (stereo partly drawn) [Example 2ax, N-[2-(3,5-dimethyl-2-oxo-1,2-dihydropyridin-1-yl)-3-{[(CIS)-4-(3-fluorophenyl)cyclohexyl]oxy}propyl]-2-methoxyethane-1-sulfonamide], the EC50 is under 100 nM.

`Cc1cc(C)c(=O)n(C(CNS(C)(=O)=O)COC2CCN(c3ncc(F)cn3)CC2)c1` (stereo not shown) [Example 2ay, N-[2-(3,5-dimethyl-2-oxo-1,2-dihydropyridin-1-yl)-3-{[1-(5-fluoropyrimidin-2-yl)piperidin-4-yl]oxy}propyl]methanesulfonamide]: the concentration for a half-maximal effect (EC50) was over 10000 nM.

For the molecule `CCC[C@H]1CC[C@@H](OCC(CNS(=O)(=O)N(C)C)n2cc(C)cc(C)c2=O)CC1` (stereo partly drawn) [Example 2bb, 1-{1-[(dimethylsulfamoyl)amino]-3-{[(CIS)-4-propylcyclohexyl]oxy}propan-2-yl}-3,5-dimethyl-1,2-dihydropyridin-2-one], the EC50 is under 100 nM.

On to `Cc1cc(C)c(=O)n(C(CNS(=O)(=O)N(C)C)CO[C@H]2CC[C@@H](C3CC3)CC2)c1` (stereo partly drawn) [Example 2bc, 1-{1-[(dimethylsulfamoyl)amino]-3-{[(CIS)-4-cyclopropylcyclohexyl]oxy}propan-2-yl}-3,5-dimethyl-1,2-dihydropyridin-2-one], for which the EC50 was in the range of 100 to 1000 nM.

As for `Cc1cc(C)c(=O)n(C(CNS(C)(=O)=O)COC2CCC3(CCOC3)CC2)c1` (stereo not shown) [Example 2bd, N-[2-(3,5-dimethyl-2-oxo-1,2-dihydropyridin-1-yl)-3-{2-oxaspiro[4.5]decan-8-yloxy}propyl]methanesulfonamide], the EC50 is over 10000 nM.

As to `CS(=O)(=O)NCC(CO[C@H]1CC[C@@H](c2ccccc2)CC1)n1cccc(C(F)(F)F)c1=O` (stereo partly drawn) [Example 2c, N-{2-[2-oxo-3-(trifluoromethyl)-1,2-dihydropyridin-1-yl]-3-{[(CIS)-4-phenylcyclohexyl]oxy}propyl}methanesulfonamide], the EC50 was 1000 to 10000 nM.

Take `Cc1ccn(C(CNS(C)(=O)=O)CO[C@H]2CC[C@@H](c3ccccc3)CC2)c(=O)c1` (stereo partly drawn) [Example 2d, N-[2-(4-methyl-2-oxo-1,2-dihydropyridin-1-yl)-3-{[(CIS)-4-phenylcyclohexyl]oxy}propyl]methanesulfonamide]: the EC50 lay in the range of 1000 to 10000 nM.

For the molecule `CS(=O)(=O)NCC(CO[C@H]1CC[C@@H](c2ccccc2)CC1)n1cccc(C#N)c1=O` (stereo partly drawn) [Example 2e, N-[2-(3-cyano-2-oxo-1,2-dihydropyridin-1-yl)-3-{[(CIS)-4-phenylcyclohexyl]oxy}propyl]methanesulfonamide], the EC50 was in the range of 1000 to 10000 nM.

Regarding `CS(=O)(=O)NCC(CO[C@H]1CC[C@@H](c2ccccc2)CC1)n1cccc(F)c1=O` (stereo partly drawn) [Example 2f, N-[2-(3-fluoro-2-oxo-1,2-dihydropyridin-1-yl)-3-{[(CIS)-4-phenylcyclohexyl]oxy}propyl]methanesulfonamide], the EC50 is 1000 to 10000 nM.

Regarding `Cc1ccc(=O)n(C(CNS(C)(=O)=O)CO[C@H]2CC[C@@H](c3ccccc3)CC2)c1` (stereo partly drawn) [Example 2i, N-[2-(5-methyl-2-oxo-1,2-dihydropyridin-1-yl)-3-{[(CIS)-4-phenylcyclohexyl]oxy}propyl]methanesulfonamide], the EC50 lay within 100 to 1000 nM.

`CS(=O)(=O)NCC(CO[C@H]1CC[C@@H](c2ccccc2)CC1)n1cc(C(F)(F)F)ccc1=O` (stereo partly drawn) [Example 2l, N-{2-[2-oxo-5-(trifluoromethyl)-1,2-dihydropyridin-1-yl]-3-{[(CIS)-4-phenylcyclohexyl]oxy}propyl}methanesulfonamide]: the EC50 is over 10000 nM.

As for `Cc1ccn(C(CNS(C)(=O)=O)CO[C@H]2CC[C@@H](c3ccccc3)CC2)c(=O)c1C` (stereo partly drawn) [Example 2m, N-[2-(3,4-dimethyl-2-oxo-1,2-dihydropyridin-1-yl)-3-{[(CIS)-4-phenylcyclohexyl]oxy}propyl]methanesulfonamide], the EC50 lay within 100 to 1000 nM.

On to `CS(=O)(=O)NCC(CO[C@H]1CC[C@@H](c2ccccc2)CC1)n1cc(Cl)ccc1=O` (stereo partly drawn) [Example 2p, N-[2-(5-chloro-2-oxo-1,2-dihydropyridin-1-yl)-3-{[(CIS)-4-phenylcyclohexyl]oxy}propyl]methanesulfonamide], for which the concentration for a half-maximal effect (EC50) is 1000 to 10000 nM.

As for `CS(=O)(=O)NCC(CO[C@H]1CC[C@@H](c2ccccc2)CC1)n1cc(OC(F)F)ccc1=O` (stereo partly drawn) [Example 2q, N-{2-[5-(difluoromethoxy)-2-oxo-1,2-dihydropyridin-1-yl]-3-{[(CIS)-4-phenylcyclohexyl]oxy}propyl}methanesulfonamide], the EC50 fell in the range of 1000 to 10000 nM.

`CS(=O)(=O)NCC(CO[C@H]1CC[C@@H](c2ccccc2)CC1)n1cc(C#N)ccc1=O` (stereo partly drawn) [Example 2r, N-[2-(5-cyano-2-oxo-1,2-dihydropyridin-1-yl)-3-{[(CIS)-4-phenylcyclohexyl]oxy}propyl]methanesulfonamide]: the EC50 was 1000 to 10000 nM.

As for `Cc1cc(C)c(=O)n(C(CNS(C)(=O)=O)CO[C@H]2CC[C@@H](c3ccccc3)CC2)c1` (stereo partly drawn) [Example 2s, N-[2-(3,5-dimethyl-2-oxo-1,2-dihydropyridin-1-yl)-3-{[(CIS)-4-phenylcyclohexyl]oxy}propyl]methanesulfonamide], the EC50 was under 100 nM.

Turning to `COc1ccc(=O)n(C(CNS(C)(=O)=O)CO[C@H]2CC[C@@H](c3ccccc3)CC2)c1` (stereo partly drawn) [Example 2v, N-[2-(5-methoxy-2-oxo-1,2-dihydropyridin-1-yl)-3-{[(CIS)-4-phenylcyclohexyl]oxy}propyl]methanesulfonamide], the concentration giving a half-maximal response (EC50) fell in the range of 1000 to 10000 nM.

As for `CS(=O)(=O)NCC(CO[C@H]1CC[C@@H](c2ccccc2)CC1)n1ccc(C(F)(F)F)cc1=O` (stereo partly drawn) [Example 2w, N-{2-[2-oxo-4-(trifluoromethyl)-1,2-dihydropyridin-1-yl]-3-{[(CIS)-4-phenylcyclohexyl]oxy}propyl}methanesulfonamide], the EC50 is over 10000 nM.

On to `Cc1cc(Br)cn(C(CNS(C)(=O)=O)CO[C@H]2CC[C@@H](c3ccccc3)CC2)c1=O` (stereo partly drawn) [Example 2x, N-[2-(5-bromo-3-methyl-2-oxo-1,2-dihydropyridin-1-yl)-3-{[(CIS)-4-phenylcyclohexyl]oxy}propyl]methanesulfonamide], for which the EC50 lay within 100 to 1000 nM.

Take `CS(=O)(=O)NCC(CO[C@H]1CC[C@@H](c2ccccc2)CC1)n1ccc(C#N)cc1=O` (stereo partly drawn) [Example 2y, N-[2-(4-cyano-2-oxo-1,2-dihydropyridin-1-yl)-3-{[(CIS)-4-phenylcyclohexyl]oxy}propyl]methanesulfonamide]: the concentration for a half-maximal effect (EC50) was over 10000 nM.

Consider `CS(=O)(=O)NCC(CO[C@H]1CC[C@@H](c2ccccc2)CC1)n1ccc2cccnc21` (stereo partly drawn) [Example 2z, N-(2-{1H-pyrrolo[2,3-b]pyridin-1-yl}-3-{[(CIS)-4-phenylcyclohexyl]oxy}propyl)methanesulfonamide], for which the EC50 fell in the range of 1000 to 10000 nM.

Turning to `Cn1cccc(C(CNS(C)(=O)=O)CO[C@H]2CC[C@@H](c3ccccc3)CC2)c1=O` (stereo partly drawn) [Example 4, N-[2-(1-methyl-2-oxo-1,2-dihydropyridin-3-yl)-3-{[(CIS)-4-phenylcyclohexyl]oxy}propyl]methanesulfonamide], the EC50 was 1000 to 10000 nM.

Regarding `Cc1cc(C(CNS(C)(=O)=O)CO[C@H]2CC[C@@H](c3ccccc3)CC2)c(=O)n(C)c1` (stereo partly drawn) [Example 5a, N-[2-(1,5-dimethyl-2-oxo-1,2-dihydropyridin-3-yl)-3-{[(CIS)-4-phenylcyclohexyl]oxy}propyl]methanesulfonamide], the EC50 was in the range of 1000 to 10000 nM.

Turning to `Cc1cc(C(CNS(=O)(=O)N(C)C)CO[C@H]2CC[C@@H](c3cccc(F)c3)CC2)c(=O)n(C(F)F)c1` (stereo partly drawn) [Example 5aa, 1-(difluoromethyl)-3-{1-[(dimethylsulfamoyl)amino]-3-{[(CIS)-4-(3-fluorophenyl)cyclohexyl]oxy}propan-2-yl}-5-methyl-1,2-dihydropyridin-2-one], the EC50 was under 100 nM.

On to `COc1ccn(C)c(=O)c1C(CNS(C)(=O)=O)CO[C@H]1CC[C@@H](c2ccccc2)CC1` (stereo partly drawn) [Example 5b, N-[2-(4-methoxy-1-methyl-2-oxo-1,2-dihydropyridin-3-yl)-3-{[(CIS)-4-phenylcyclohexyl]oxy}propyl]methanesulfonamide], for which the EC50 was 1000 to 10000 nM.

In the case of `Cc1cc(C(CNS(C)(=O)=O)CO[C@H]2CC[C@@H](c3cccc(F)c3)CC2)c(=O)n(CC#N)c1` (stereo partly drawn) [Example 5e, N-{2-[1-(cyanomethyl)-5-methyl-2-oxo-1,2-dihydropyridin-3-yl]-3-{[(CIS)-4-(3-fluorophenyl)cyclohexyl]oxy}propyl}methanesulfonamide], the concentration for a half-maximal effect (EC50) fell in the range of 100 to 1000 nM.

For the origin of these results see US20240360081A1, “SULFONAMIDE OREXIN RECEPTOR AGONISTS AND USES THEREOF” (Jazz Pharmaceuticals Ireland Limited, priority 2021, published 2024).
